In patent US20020169175A1, “Pharmaceutically acceptable salts of heterocyclic compounds” (DR. REDDY'S LABORATORIES LTD., priority 2001, published 2002):
Structures can show the parent of a compound that is named as a salt.

Key:
[1] = system: Swiss albino mice; assay: Plasma triglyceride and total cholesterol lowering activity in Swiss albino mice and Guinea pigs; format: in vivo, mouse; settings: oral, 6 days
Procedure: c) Plasma Triglyceride and Total Cholesterol Lowering Activity in Swiss Albino Mice and Guinea Pigs
Male Swiss albino mice (SAM) and male Guinea pigs were obtained from NIN and housed in DRF animal house. All these animals were maintained under 12 hour light and dark cycle at 25±1° C. Animals were given standard laboratory chow (NIN Hyderabad, India) and water, ad libitum. SAM of 20-25 g body weight range and Guinea pigs of 500-700 g body weight range were used (Oliver, P., Plancke, M. O., Marzin, D., Clavey, V., Sauzieres, J and Fruchart, J. C. Effects of fenofibrate, gemfibrozil and nicotinic acid on plasma lipoprotein levels in normal and hyperlipidemic mice. Atherosclerosis. 1988. 70: 107-114).
The test compounds were administered orally to Swiss albino mice at 0.3 to 30 mg/kg/day dose for 6 days. Control mice were treated with vehicle (0.25% Carboxymethylcellulose; dose 10 ml/kg). The test compounds were administered orally to Guinea pigs at 0.3 to 30 mg/kg/day dose for 6 days. Control animals were treated with vehicle (0.25% Carboxymethylcellulose; dose 5 ml/kg).
The blood samples were collected in fed state 1 hour after drug administration on 0 and 6 day of treatment. The blood was collected from the retro-orbital sinus through heparinised capillary in EDTA containing tubes. After centrifugation, plasma sample was separated for triglyceride and total cholesterol (Wieland, O. Methods of Enzymatic analysis. Bergermeyer, H. O., Ed., 1963. 211-214; Trinder, P. Ann. Clin. Biochem. 1969. 6: 24-27). Measurement of plasma triglyceride, total cholesterol and HDL were done using commercial kits (Dr. Reddy's Diagnostic Division, Hyderabad, India).
1. Percent reduction in Blood sugar/triglycerides/total cholesterol were calculated according to the formula: [formula]

[2] = target: T1, hPPARα (Homo sapiens, UniProt Q07869); assay: Determination of hPPARα activity (GAL4 fusion luciferase reporter in transfected HEK-293 cells); format: cell-based; settings: compound concentration 50 μM
T1 construct: expressed in transfected cells; host or cells: HEK-293
T1 sequence (Q07869 239-466 limits assumed): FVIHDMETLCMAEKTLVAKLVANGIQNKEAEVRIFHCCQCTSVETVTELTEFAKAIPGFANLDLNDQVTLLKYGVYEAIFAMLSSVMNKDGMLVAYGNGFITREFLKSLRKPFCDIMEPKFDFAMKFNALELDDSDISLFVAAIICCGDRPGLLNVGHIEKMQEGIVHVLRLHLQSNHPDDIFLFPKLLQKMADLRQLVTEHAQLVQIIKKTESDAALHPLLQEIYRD
Procedure: a) Determination of hPPARα Activity
Ligand binding domain of hPPARα was fused to DNA binding domain of Yeast transcription factor GAL4 in eucaryotic expression vector. Using superfect (Qiagen, Germany) as transfecting reagent HEK-293 cells were transfected with this plasmid and a reporter plasmid harboring the luciferase gene driven by a GAL4 specific promoter. Compound was added at different concentrations after 42 hrs of transfection and incubated overnight. Luciferase activity as a function of compound binding/activation capacity of PPARα was measured using Packard Luclite kit (Packard, USA) in Top Count (Ivan Sadowski, Brendan Bell, Peter Broag and Melvyn Hollis. Gene. 1992. 118: 137-141; Superfect Transfection Reagent Handbook. February 1997. Qiagen, Germany).

[3] = target: T2, hPPARγ1 (Homo sapiens, UniProt P37231); assay: Determination of hPPARγ activity (GAL4 fusion luciferase reporter in transfected HEK-293 cells); format: cell-based; settings: compound concentration 1 μM
T2 construct: expressed in transfected cells; host or cells: HEK-293
T2 sequence (P37231 238-503 limits assumed): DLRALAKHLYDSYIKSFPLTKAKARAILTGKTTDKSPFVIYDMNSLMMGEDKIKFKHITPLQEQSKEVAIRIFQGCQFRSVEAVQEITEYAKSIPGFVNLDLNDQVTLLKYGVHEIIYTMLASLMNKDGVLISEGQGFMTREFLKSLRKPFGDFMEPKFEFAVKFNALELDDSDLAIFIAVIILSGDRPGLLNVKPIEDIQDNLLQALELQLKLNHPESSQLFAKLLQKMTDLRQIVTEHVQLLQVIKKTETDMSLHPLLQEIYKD
Procedure: b) Determination of hPPARγ Activity
Ligand binding domain of hPPARγ1 was fused to DNA binding domain of Yeast transcription factor GAL4 in eucaryotic expression vector. Using lipofectamine (Gibco BRL, USA) as transfecting reagent HEK-293 cells were transfected with this plasmid and a reporter plasmid harboring the luciferase gene driven by a GAL4 specific promoter. Compound was added at 1 μM concentration after 48 hrs of transfection and incubated overnight. Luciferase activity as a function of drug binding/activation capacity of PPARγ1 was measured using Packard Luclite kit (Packard, USA) in Packard Top Count (Ivan Sadowski, Brendan Bell, Peter Broag and Melvyn Hollis. Gene. 1992. 118: 137-141; Guide to Eukaryotic Transfections with Cationic Lipid Reagents. Life Technologies, GIBCO BRL, USA).

[4] = Single dose oral pharmacokinetic studies in male Wistar rats; format: in vivo, rat; settings: fasted, suspension in 0.25% sodium CMC
Procedure: Single Dose Oral Pharmacokinetic Studies
Male Wistar rats (220-250 gm) were used in the experiments. The animals were maintained under standard laboratory conditions and had free access to feed and water ad libitum. Before experimentation animals were fasted overnight (˜15 h) during which they had free access to water ad libitum.
An amount equivalent to 30 mg of drug was weighed accurately and transferred into a clean mortar and triturated to obtain a fine powder. To this 0.5 ml of 0.25% sodium carboxy methyl cellulose (sodium CMC) was added to obtain a paste. To the obtained paste remaining 2.5 ml of sodium CMC was added to make up the volume to 3 ml. Based on the animal weight appropriate volume (body weight×3) of the prepared suspension was administered through oral gavage.
After dosing, at designated time points (0.5, 1, 2, 3, 5, 8, 12 and 24 h) 200 μl of blood was collected from retro orbital plexus into 0.5 ml eppendorff tubes containing EDTA (10 μl of 200 mg/ml solution in Milli Q water). Blood was centrifuged at 12,800 rpm for 5 min and obtained plasma and stored at −20° C. till further analysis.
100μl plasma was transferred into a clean and dry centrifuge tube. To this internal standard (10 μl of 100 μg/ml) was added and extracted with 2 ml of extraction recovery solvent. The contents were vortexed for 2 min, followed by centrifugation for 10 min at 2800 rpm. Clear organic layer (2×0.75 ml) was separated and dried under nitrogen gas at 50° C. The residue was reconstituted with 150 μl of mobile phase and vortexed for 20 sec, from this 50 μl was injected onto HPLC column.
Pharmacokinetic parameters were calculated by non-compartmental model analysis. The peak plasma concentration (Cmax) and the corresponding time (Tmax)were directly obtained from the raw data. The area under the plasma concentration versus time curve up to the last quantifiable time point, AUC(0−t) was obtained by the linear and log-linear trapezoidal summation. The AUC(0−t) extrapolated to infinity (i.e., AUC(0−∞)) by adding the quotient of Clast/Kel, where Clast represents the last measurable time concentration and Kel represents the apparent terminal rate constant. Kel was calculated by the linear regression of the log-transformed concentrations of the drug in the terminal phase. The half-life of the terminal elimination phase was obtained using the relationship t½=0.693/Kel.

CCO[C@@H](Cc1ccc(OCCn2c(CC)nc3ccccc3c2=O)cc1)C(=O)O [Example 1, (−)-3-[4-[2-(2-Ethyl-4-oxo-3,4-dihydroquinazolin-3-yl)ethoxy]phenyl]-2-ethoxypropanoic acid phenyl glycinol salt]
Triglyceride Lowering (%) ([1]; dose 3 mg/kg): 87%

CCCc1nn(C)c2c(=O)n(CCOc3ccc(C[C@H](OCC)C(=O)[O-])cc3)c(C)nc12.[Na+] [Example 20, 3-[4-[2-(1,5-Dimethyl-7-oxo-3-propyl-6,7-dihydro-1H-pyrazolo[4,3-d]pyrimidin-6-yl)ethoxy]phenyl]-2-ethoxypropionic acid sodium salt]
PPARα [2]: 3.5
PPARγ [3]: 13.0

CCCc1nn(C)c2c(=O)n(CCOc3ccc(CC(OCC)C(=O)[O-])cc3)c(CC)nc12.CCCc1nn(C)c2c(=O)n(CCOc3ccc(CC(OCC)C(=O)[O-])cc3)c(CC)nc12.[Mg+2] (single isomer, unassigned; (-)) [Example 31, (−)-3-[4-[2-(1-Methyl-5-ethyl-7-oxo-3-propyl-6,7-dihydro-1H-pyrazolo[4,3-d]pyrimidin-6-yl)ethoxy]phenyl]-2-ethoxypropionic acid magnesium salt]
AUC (0-∞) [4]: 65930 ng·h/mL
AUC(0-t) [4]: 64700 ng·h/mL
Cmax [4]: 19150 ng/mL
Kel [4]: 0.34 h⁻¹
Tmax [4]: 2.75 h
t½ [4]: 2.24 h
Triglyceride Lowering (%) ([1]; dose 3 mg/kg): 84%

CCCc1nn(C)c2c(=O)n(CCOc3ccc(C[C@H](OCC)C(=O)O)cc3)c(CC)nc12 [Example 36, (−)-3-[4-[2-(1-Methyl-5-ethyl-7-oxo-3-propyl-6,7-dihydro-1H-pyrazolo[4,3-d]pyrimidin-6-yl)ethoxy]phenyl]-2-ethoxypropionic acid arginine salt]
PPARγ [3]: 11.4

CCCc1nn(C)c2c(=O)n(CCOc3ccc(C[C@H](OCC)C(=O)O)cc3)c(C)nc12 [Example 23, 3-[4-[2-(1,5-Dimethyl-7-oxo-3-propyl-6,7-dihydro-1H-pyrazolo[4,3-d]pyrimidin-6-yl)ethoxy]phenyl]-2-ethoxypropionic acid S-(+)-phenylglycinol salt]
PPARα [2]: 3.4
PPARγ [3]: 11.5

CCCc1nn(C)c2c(=O)n(CCOc3ccc(C[C@H](OCC)C(=O)O)cc3)c(CC)nc12 [Example 45, (−)-3-[4-[2-(1-Methyl-5-ethyl-7-oxo-3-propyl-6,7-dihydro-1H-pyrazolo[4,3-d]pyrimidin-6-yl)ethoxy]phenyl]-2-ethoxypropionic acid Lysine salt]
AUC (0-∞) [4]: 101290 ng·h/mL
AUC(0-t) [4]: 99330 ng·h/mL
Cmax [4]: 24220 ng/mL
Kel [4]: 0.42 h⁻¹
Tmax [4]: 2.38 h
t½ [4]: 1.72 h
Triglyceride Lowering (%) ([1]; dose 3 mg/kg): 81%

CCO[C@@H](Cc1ccc(OCCn2c(CC)nc3ccccc3c2=O)cc1)C(=O)O [Example 3, (−)-3-[4-[2-(2-Ethyl-4-oxo-3,4-dihydroquinazolin-3-yl)ethoxy]phenyl]-2-ethoxypropanoic acid dicyclohexylamine salt]
Triglyceride Lowering (%) ([1]; dose 3 mg/kg): 81%

CCO[C@@H](Cc1ccc(OCCn2c(N=[N+]=[N-])nc3ccccc3c2=O)cc1)C(=O)O [Example 12, (−)-3-[4-[2-(2-Azido-4-oxo-3,4-dihydroquinazolin-3-yl)ethoxy]phenyl]-2-ethoxypropanoic acid magnesium salt]
Triglyceride Lowering (%) ([1]; dose 0.3 mg/kg): 37%

CCCc1nn(C)c2c(=O)n(CCOc3ccc(C[C@H](OCC)C(=O)O)cc3)c(CC)nc12 [Example 41, (−)-3-[4-[2-(1-Methyl-5-ethyl-7-oxo-3-propyl-6,7-dihydro-1H-pyrazolo[4,3-d]pyrimidin-6-yl)ethoxy]phenyl]-2-ethoxypropionic acid dicyclohexylamine salt]
PPARα [2]: 3.1
PPARγ [3]: 13.0

CCCc1nn(C)c2c(=O)n(CCOc3ccc(CC(OCC)C(=O)[O-])cc3)c(C)nc12.CCCc1nn(C)c2c(=O)n(CCOc3ccc(CC(OCC)C(=O)[O-])cc3)c(C)nc12.[Mg+2] (stereo not drawn) [Example 16, 3-[4-[2-(1,5-Dimethyl-7-oxo-3-propyl-6,7-dihydro-1H-pyrazolo[4,3-d]pyrimidin-6-yl)ethoxy]phenyl]-2-ethoxypropionic acid magnesium salt]
PPARα [2]: 3.4
PPARγ [3]: 13.5

CCCc1nn(C)c2c(=O)n(CCOc3ccc(C[C@H](OCC)C(=O)O)cc3)c(CC)nc12 [Example 44, (−)-3-[4-[2-(1-Methyl-5-ethyl-7-oxo-3-propyl-6,7-dihydro-1H-pyrazolo[4,3-d]pyrimidin-6-yl)ethoxy]phenyl]-2-ethoxypropionic acid metformin salt]
PPARα [2]: 2.5
Triglyceride Lowering (%) ([1]; dose 3 mg/kg): 80%

CCCc1nn(C)c2c(=O)n(CCOc3ccc(C[C@H](OCC)C(=O)O)cc3)c(CC)nc12 [Example 38, (−)-3-[4-[2-(1-Methyl-5-ethyl-7-oxo-3-propyl-6,7-dihydro-1H-pyrazolo[4,3-d]pyrimidin-6-yl)ethoxy]phenyl]-2-ethoxypropionic acid S-(+)-phenylglycinol salt]
PPARα [2]: 3.3
PPARγ [3]: 12.0
